The text below walks through data of patent US8299056B2 (Signal Pharmaceuticals, LLC, priority 2008, dated 2012).

For the first test, the target named is T1, Syk (Homo sapiens, UniProt P43405).
T1 construct: purchased Carna Biosciences
In words: Syk HTRF assay. In kind it is biochemical. The following applies: IC50 activity level, read-out: Activity Level. A digest of the protocol:
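HTRF kinase assay in HEPES pH 7.6 buffer with MgCl2, DTT and Triton X100; start mix of 87.5 μM ATP and 80 nM biotinylated peptide, 1 h at room temperature. EDTA stop, then Eu-anti-phosphotyrosine/streptavidin-DyLight 647 detection, read as 665/615 nm emission ratio.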
For orientation: Time-resolved FRET reads energy transfer from a long-lived donor to a nearby acceptor.
Take `O[C@H]1CC[C@@H](Cc2cccc3nc(Nc4ccc(C(F)(F)F)cc4)nn23)CC1` [Example 399, cis-4-((2-(4-(trifluoromethyl)phenylamino)-[1,2,4]triazolo[1,5-a]pyridin-5-yl)methyl)cyclohexanol]: the IC50 was in the range of 0.005 to 250 nM.
With `CNC(=O)c1ccc(Nc2nc3cccc(NC4CCCC4)n3n2)cc1` [Example 400, 4-(5-(cyclopentylamino)-[1,2,4]triazolo[1,5-a]pyridin-2-ylamino)-N-methylbenzamide], the IC50 lay in the range of 0.005 to 250 nM.
For `COCc1nc2ccc(-c3cccc4nc(Nc5ccc(C(F)(F)F)cc5)nn34)cc2[nH]1` [Example 401, 5-(2-(methoxymethyl)-1H-benzo[d]imidazol-6-yl)-N-(4-(trifluoromethyl)phenyl)-[1,2,4]triazolo[1,5-a]pyridin-2-amine], the IC50 lay in the range of 0.005 to 250 nM.
Same read-out and setting: next, `CC(O)c1nc2ccc(-c3cccc4nc(Nc5ccc(C(F)(F)F)cc5)nn34)cc2[nH]1` (centres unmarked) [Example 402, 1-(6-(2-(4-(trifluoromethyl)phenylamino)-[1,2,4]triazolo[1,5-a]pyridin-5-yl)-1H-benzo[d]imidazol-2-yl)ethanol]: 0.005 to 250 nM; `Cc1ccc(Nc2nc3cccc(N[C@H]4CC[C@@H](O)CC4)n3n2)cn1` [Example 403, cis-4-(2-(6-methylpyridin-3-ylamino)-[1,2,4]triazolo[1,5-a]pyridin-5-ylamino)cyclohexanol]: 0.005 to 250 nM; `O[C@@H]1CCC[C@@H]1Nc1cccc2nc(Nc3ccc(C(F)(F)F)cc3)nn12` [Example 406, (1R,2S)-2-(2-(4-(trifluoromethyl)phenylamino)-[1,2,4]triazolo[1,5-a]pyridin-5-ylamino)cyclopentanol]: 500 to 1000 nM.
Regarding `CCN1CCC(Cc2cccc3nc(Nc4ccc(C(F)(F)F)cc4)nn23)CC1` [Example 407, 5-((1-ethylpiperidin-4-yl)methyl)-N-(4-(trifluoromethyl)phenyl)-[1,2,4]triazolo[1,5-a]pyridin-2-amine], the IC50 is 500 to 1000 nM.
Still for that read-out and setting: then `NC(=O)c1nc2ccc(-c3cccc4nc(Nc5ccc(C(F)(F)F)cc5)nn34)cc2[nH]1` [Example 408, 6-(2-(4-(trifluoromethyl)phenylamino)-[1,2,4]triazolo[1,5-a]pyridin-5-yl)-1H-benzo[d]imidazole-2-carboxamide], with 0.005 to 250 nM; and `OCc1nc2ccc(-c3cccc4nc(Nc5ccc(C(F)(F)F)cc5)nn34)cc2[nH]1` [Example 409, (6-(2-(4-(trifluoromethyl)phenylamino)-[1,2,4]triazolo[1,5-a]pyridin-5-yl)-1H-benzo[d]imidazol-2-yl)methanol], with 0.005 to 250 nM; and `OC[C@H]1CC[C@@H](Nc2cccc3nc(Nc4ccc(C(F)(F)F)cc4)nn23)CC1` [Example 410, cis-(4-(2-(4-(trifluoromethyl)phenylamino)-[1,2,4]triazolo[1,5-a]pyrridin-5-ylamino)cyclohexyl)methanol], with 0.005 to 250 nM.
Same read-out and setting: next, `OC[C@H](Nc1cccc2nc(Nc3ccc(C(F)(F)F)cc3)nn12)c1ccccc1` [Example 412, (R)-2-phenyl-2-(2-(4-(trifluoromethyl)phenylamino)-[1,2,4]triazolo[1,5-a]pyridin-5-ylamino)ethanol]: 1000 to 10000 nM; `OC[C@@H](Nc1cccc2nc(Nc3ccc(C(F)(F)F)cc3)nn12)c1ccccc1` [Example 413, (S)-2-phenyl-2-(2-(4-(trifluoromethyl)phenylamino)-[1,2,4]triazolo[1,5-a]pyridin-5-ylamino)ethanol]: 1000 to 10000 nM.
Same read-out and setting: next, `Oc1cc(Nc2cccc3nc(Nc4ccc(C(F)(F)F)cc4)nn23)ccn1` [Example 415, 4-(2-(4-(trifluoromethyl)phenylamino)-[1,2,4]triazolo[1,5-a]pyridin-5-ylamino)pyridin-2-ol]: 1000 to 10000 nM; `NC(=O)c1cc(-c2cccc3nc(Nc4ccc(F)cc4)nn23)ccn1` [Example 416, 4-(2-(4-fluorophenylamino)-[1,2,4]triazolo[1,5-a]pyridin-5-yl)picolinamide]: 1000 to 10000 nM.

Staying with this test, now noted: activity levels A-D, read-out: Activity Level (IC50 in the Syk HTRF assay).
`C[C@]1(O)CC[C@H](Nc2cccc3nc(Nc4ccc(C(F)(F)F)cc4)nn23)CC1` [Example 383, trans-1-methyl-4-(2-(4-(trifluoromethyl)phenylamino)-[1,2,4]triazolo[1,5-a]pyridin-5-ylamino)cyclohexanol]: the IC50 fell in the range of 500 to 1000 nM.
Take `C[C@]1(O)CC[C@H](Nc2cccc3nc(Nc4ccc(C(F)(F)F)cc4)nn23)CC1` [Example 384, cis-1-methyl-4-(2-(4-(trifluoromethyl)phenylamino)-[1,2,4]triazolo[1,5-a]pyridin-5-ylamino)cyclohexanol]: the IC50 lay within 0.005 to 250 nM.
On to `CC(C)(O)[C@H]1CC[C@@H](Nc2cccc3nc(Nc4ccc(C(F)(F)F)cc4)nn23)CC1` [Example 385, cis-2-(4-(2-(4-(trifluoromethyl)phenylamino)-[1,2,4]triazolo[1,5-a]pyridin-5-ylamino)cyclohexyl)propan-2-ol], for which the IC50 was in the range of 500 to 1000 nM.
The same measure, in the same setting: then `CNC(=O)c1ccc(Nc2nc3cccc(N[C@H]4CC[C@@H](O)CC4)n3n2)cc1` [Example 386, cis-4-(5-(4-hydroxycyclohexylamino)-[1,2,4]triazolo[1,5-a]pyridin-2-ylamino)-N-methylbenzamide], with 500 to 1000 nM; and `O=C1CN(Cc2cccc3nc(Nc4ccc(C(F)(F)F)cc4)nn23)CCN1` [Example 388, 4-((2-(4-(trifluoromethyl)phenylamino)-[1,2,4]-triazolo[1,5-a]pyridin-5-yl)methyl)piperazin-2-one], with 0.005 to 250 nM.
On the same count and under the same terms, then `O[C@H]1CC[C@@H](Nc2cccc3nc(Nc4ccncc4)nn23)CC1` [Example 389, cis-4-(2-(pyridin-4-ylamino)-[1,2,4]triazolo[1,5-a]pyridin-5-ylamino)cyclohexanol], with 1000 to 10000 nM.
Same read-out and setting: next, `Cc1cncc(Nc2nc3cccc(N[C@H]4CC[C@@H](O)CC4)n3n2)c1` [Example 390, cis-4-(2-(5-methylpyridin-3-ylamino)-[1,2,4]triazolo[1,5-a]pyridin-5-ylamino)cyclohexanol]: 250 to 500 nM.
For `COc1ccc(Nc2nc3cccc(N[C@H]4CC[C@@H](O)CC4)n3n2)cn1` [Example 391, cis-4-(2-(6-methoxypyridin-3-ylamino)-[1,2,4]triazolo[1,5-a]pyridin-5-ylamino)cyclohexanol], the IC50 fell in the range of 500 to 1000 nM.
Same read-out and setting: then `CN(C)c1ccc(Nc2nc3cccc(N[C@H]4CC[C@@H](O)CC4)n3n2)cn1` [Example 392, cis-4-(2-(6-(dimethylamino)pyridin-3-ylamino)-[1,2,4]triazolo[1,5-a]pyridin-5-ylamino)cyclohexanol], with 250 to 500 nM; and `FC(F)(F)c1ccc(Nc2nc3cccc(CN4CCNCC4)n3n2)cc1` [Example 393, 5-(piperazin-1-ylmethyl)-N-(4-(trifluoromethyl)phenyl)-[1,2,4]triazolo[1,5-a]pyridin-2-amine], with 0.005 to 250 nM; and `FC(F)(F)c1ccc(Nc2nc3cccc(CC4CCNCC4)n3n2)cc1` [Example 395, 5-(piperidin-4-ylmethyl)-N-(4-(trifluoromethyl)phenyl)-[1,2,4]triazolo[1,5-a]pyridin-2-amine], with 0.005 to 250 nM.
`OC1CCN(Cc2cccc3nc(Nc4ccc(C(F)(F)F)cc4)nn23)CC1` [Example 396, 1-((2-(4-(trifluoromethyl)phenylamino)-[1,2,4]triazolo[1,5-a]pyridin-5-yl)methyl)piperidin-4-ol]: the IC50 was 1000 to 10000 nM.
